Results: publication PMC7397269, “Synthesis and Evaluation of New Coumarin Derivatives as Antioxidant, Antimicrobial, and Anti-Inflammatory Agents” (Molecules, 2020)
In brackets after ≈: the same amount, converted by molar mass. Like-named read-outs stand apart in the source and are kept apart here.

What was measured:
trypsin = assay: Proteinase-inhibitory activity; type: biochemical; details: 250 µg/mL; mean ± SD (n = 3)
Summary of the method: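 Trypsin (0.06 mg per 2 mL, 20 mM Tris-HCl pH 7.4) was preincubated 5 min with test sample at 250 µg/mL, then 0.8% casein was added for 20 min. Perchloric acid stopped the reaction and supernatant absorbance was read at 280 nm. % inhibition is relative to the no-sample control, in triplicate.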

[1] = system: Saccharomyces cerevisiae local isolate; assay: Agar well diffusion, S. cerevisiae; type: cell-based; details: read-out: diameter of inhibition zone, SC
Summary of the method: (§1)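 Values are mean inhibition zone diameters (mm) from triplicate plates incubated 24 h at 37 °C. Wells 10 mm wide held 100 μL of compound at 10 mg/mL in DMSO.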

[2] = system: Staphylococcus aureus ATCC 29213; assay: Agar well diffusion, S. aureus; type: cell-based; details: ATCC29213, 100 μL of 10 mg/mL in DMSO, read-out: diameter of inhibition zone, SA
Summary of the method: as §1

[3] = system: Bacillus subtilis ATCC 6633; assay: MIC, two-fold serial dilution, B. subtilis; type: cell-based; details: ATCC6633, read-out: Minimum inhibitory concentration, BS
Summary of the method: (§2)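 Compounds with agar-well inhibition zone >16 mm went on to two-fold broth dilution at final 1000, 500, 250 and 125 μg/mL. Inocula were 1×10^8 CFU/mL for bacteria and 1×10^6 CFU/mL for yeast (0.1 mL per 5 mL), incubated 37 °C for 24 h. MIC taken as the lowest concentration with no growth.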

[4] = system: Escherichia coli ATCC 2592; assay: Agar well diffusion, E. coli; type: cell-based; details: ATCC2592, 100 μL of 10 mg/mL in DMSO, read-out: diameter of inhibition zone, EC
Summary of the method: as §1

[5] = system: Bacillus megaterium ATCC 9885; assay: Agar well diffusion, B. megaterium; type: cell-based; details: Priestia megaterium, ATCC9885, 100 μL of 10 mg/mL in DMSO, read-out: diameter of inhibition zone, BM
Summary of the method: as §1

[6] = system: Staphylococcus aureus ATCC 29213; assay: MIC, two-fold serial dilution, S. aureus; type: cell-based; details: ATCC29213, read-out: Minimum inhibitory concentration, SA
Summary of the method: as §2

[7] = system: Candida albicans NRRL Y-477; assay: MIC, two-fold serial dilution, C. albicans; type: cell-based; details: NRRLY477, read-out: Minimum inhibitory concentration, CA
Summary of the method: as §2

[8] = system: Bacillus megaterium ATCC 9885; assay: MIC, two-fold serial dilution, B. megaterium; type: cell-based; details: Priestia megaterium, ATCC9885, read-out: Minimum inhibitory concentration, BM
Summary of the method: as §2

[9] = system: Bacillus subtilis ATCC 6633; assay: Agar well diffusion, B. subtilis; type: cell-based; details: ATCC6633, 100 μL of 10 mg/mL in DMSO, read-out: diameter of inhibition zone, BS
Summary of the method: as §1

COX-1 = molecular target: T1, COX-1 (Homo sapiens, UniProt P23219); assay: COX-1 inhibition, Cayman assay kit; type: biochemical; details: mean of two determinations
T1 construct: purchased Cayman Chemical 701070

[10] = system: Pseudomonas aeruginosa ATCC 27,953; assay: MIC, two-fold serial dilution, P. aeruginosa; type: cell-based; details: ATCC27, read-out: Minimum inhibitory concentration, PA
Summary of the method: as §2

[11] = system: Escherichia coli ATCC 2592; assay: MIC, two-fold serial dilution, E. coli; type: cell-based; details: ATCC2592, read-out: Minimum inhibitory concentration, EC
Summary of the method: as §2

[12] = system: Pseudomonas aeruginosa ATCC 27,953; assay: Agar well diffusion, P. aeruginosa; type: cell-based; details: ATCC27, 100 μL of 10 mg/mL in DMSO, read-out: diameter of inhibition zone, PA
Summary of the method: as §1

[13] = well diffusion, 100 μL of 10 mg/mL in DMSO, S. cerevisiae

T1 sequence (P23219 24-599): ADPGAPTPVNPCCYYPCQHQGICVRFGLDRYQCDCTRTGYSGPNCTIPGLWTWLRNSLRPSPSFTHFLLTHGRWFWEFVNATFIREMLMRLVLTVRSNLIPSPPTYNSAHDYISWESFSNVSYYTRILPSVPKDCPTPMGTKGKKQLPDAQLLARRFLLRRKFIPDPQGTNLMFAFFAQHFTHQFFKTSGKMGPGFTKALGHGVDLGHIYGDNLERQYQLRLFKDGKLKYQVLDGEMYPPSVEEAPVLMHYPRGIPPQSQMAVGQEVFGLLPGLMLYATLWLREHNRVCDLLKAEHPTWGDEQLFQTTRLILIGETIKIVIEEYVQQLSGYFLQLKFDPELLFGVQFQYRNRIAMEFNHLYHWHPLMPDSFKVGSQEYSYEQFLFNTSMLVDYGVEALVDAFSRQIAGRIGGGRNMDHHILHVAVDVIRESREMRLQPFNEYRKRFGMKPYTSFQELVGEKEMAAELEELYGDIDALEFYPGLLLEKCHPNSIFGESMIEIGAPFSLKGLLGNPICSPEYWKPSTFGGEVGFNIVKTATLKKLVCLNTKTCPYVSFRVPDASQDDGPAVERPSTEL

Row | SMILES | % Inhibition (proteinase) (trypsin) [%] | melting point [°C] | zone of inhibition at 10000 µg/mL [1, 13] [mm] | zone of inhibition at 10000 µg/mL [2] [mm] | MIC [3] [µg/mL] | zone of inhibition at 10000 µg/mL [4] [mm] | zone of inhibition at 10000 µg/mL [5] [mm] | MIC [6] [µg/mL] | MIC [7] [µg/mL] | MIC [8] [µg/mL] | zone of inhibition at 10000 µg/mL [9] [mm] | IC50 (COX-1) [µM] | MIC [10] [µg/mL] | MIC [11] [µg/mL] | zone of inhibition at 10000 µg/mL [12] [mm] | zone of inhibition at 10000 µg/mL [1] [mm]
1 | O=c1oc2ccc(Cl)cc2c(O)c1S(=O)(=O)Nc1ccc(S(=O)(=O)Nc2ncccn2)cc1 [7c, 6-Chloro-4-hydroxy-2-oxo-N-(4-(N-(pyrimidin-2-yl)sulfamoyl)phenyl)-2H-chromene-3-sulfonamide] | 8.9 ± 2.04 | 230 to 232 | 31 to 32 | 30 | 125 (≈ 246 µM) | 30 | 30 | 125 (≈ 246 µM) | 125 (≈ 246 µM) | 125 (≈ 246 µM) | 31 | 62.3 | 250 (≈ 491 µM) | 125 (≈ 246 µM) | 24 | 
2 | COc1cc(/C=N/C2=C(C#N)C(c3ccc([N+](=O)[O-])cc3)c3c(c4cc(C)ccc4oc3=O)O2)cc(OC)c1OC (racemic) [5c, (±)-9-methyl-4-(4-nitrophenyl)-5-oxo-2-((3,4,5-trimethoxybenzylidene)amino)-4H,5H-pyrano[3,2-c]chromene-3-carbonitrile] | 68.5 ± 6.23 | 221 to 223 |  | 23 | 500 (≈ 903 µM) | 24 | 24 | 500 (≈ 903 µM) | 500 (≈ 903 µM) | 500 (≈ 903 µM) | 23 | 18.5 | 500 (≈ 903 µM) | 500 (≈ 903 µM) | 25 | 27
3 | Cc1ccc2oc(=O)c(S(=O)(=O)Nc3ccc(S(=O)(=O)Nc4nccs4)cc3)c(O)c2c1 [7f, 4-Hydroxy-6-methyl-2-oxo-N-(4-(N-(thiazol-2-yl)sulfamoyl)phenyl)-2H-chromene-3-sulfonamide] | 43.88 ± 5.6 | 167 to 169 | 26 | 24 | 250 (≈ 507 µM) | 23 | 27 | 250 (≈ 507 µM) | 500 (≈ 1010 µM) | 250 (≈ 507 µM) | 27 | 40.9 | 500 (≈ 1010 µM) | 500 (≈ 1010 µM) | 24 | 
4 | Cc1ccc2oc(=O)c(S(=O)(=O)Nc3ccccc3)c(O)c2c1 [8b, 4-Hydroxy-6-methyl-2-oxo-N-phenyl-2H-chromene-3-sulfonamide] | 14.3 ± 2.21 | 324 to 325 | 19 | 20 | 1000 (≈ 3020 µM) | 18 | 24 | 1000 (≈ 3020 µM) | 1000 (≈ 3020 µM) | 1000 (≈ 3020 µM) | 19 | 26 | 1000 (≈ 3020 µM) | 1000 (≈ 3020 µM) | 17 | 
5 | O=c1oc2ccc(Cl)cc2c(O)c1S(=O)(=O)Nc1ccc(S(=O)(=O)Nc2nccs2)cc1 [7e, 6-Chloro-4-hydroxy-2-oxo-N-(4-(N-(thiazol-2-yl)sulfamoyl)phenyl)-2H-chromene-3-sulfonamide] | 19.8 ± 2.54 | 215 to 217 | 20 | 23 | 500 (≈ 973 µM) | 20 | 25 | 500 (≈ 973 µM) | 500 (≈ 973 µM) | 500 (≈ 973 µM) | 25 | 29.6 | 1000 (≈ 1950 µM) | 500 (≈ 973 µM) | 22 | 
6 | Cc1ccc2oc(=O)c3c(c2c1)OC(/N=C/c1ccc(Cl)cc1Cl)=C(C#N)C3c1ccco1 (racemic) [5f, (±)-2-((2,4-dichlorobenzylidene)amino)-4-(furan-2-yl)-9-methyl-5-oxo-4H,5H-pyrano[3,2-c]chromene-3-carbonitrile] | 26.83 ± 5.33 | > 300 |  | 25 | 500 (≈ 1050 µM) | 20 | 20 | 500 (≈ 1050 µM) | 500 (≈ 1050 µM) | 1000 (≈ 2100 µM) | 23 | 90.2 | 1000 (≈ 2100 µM) | 1000 (≈ 2100 µM) | 21 | 24
7 | Cc1ccc2oc(=O)c(S(=O)(=O)Nc3ccc(O)cc3)c(O)c2c1 [8d, 4-Hydroxy-N-(4-hydroxyphenyl)-6-methyl-2-oxo-2H-chromene-3-sulfonamide] | 20.15 ± 7.31 | 253 to 254 | 31 to 32 | 30 | 125 (≈ 360 µM) | 31 | 29 | 125 (≈ 360 µM) | 125 (≈ 360 µM) | 250 (≈ 720 µM) | 29 | 19.4 | 125 (≈ 360 µM) | 125 (≈ 360 µM) | 31 | 
8 | Cc1ccc2oc(=O)c3c(c2c1)OC(N)=C(C#N)C3c1ccc([N+](=O)[O-])cc1 (racemic) [2a, (±)-2-Amino-9-methyl-4-(4-nitrophenyl)-5-oxo-4H,5H-pyrano[3,2-c]chromene-3-carbonitrile] | 17.38 ± 1.63 | 259 to 261 |  | 24 | 500 (≈ 1330 µM) | 18 | 25 | 500 (≈ 1330 µM) | 500 (≈ 1330 µM) | 500 (≈ 1330 µM) | 22 | 117 | 500 (≈ 1330 µM) | 1000 (≈ 2660 µM) | 20 | 25
9 | Cc1ccc2oc(=O)c(S(=O)(=O)Nc3ccc(S(=O)(=O)Nc4ncccn4)cc3)c(O)c2c1 [7d, 4-Hydroxy-6-methyl-2-oxo-N-(4-(N-(pyrimidin-2-yl)sulfamoyl)phenyl)-2H-chromene-3-sulfonamide] | 36.84 ± 4.87 | 207 to 209 | 31 to 32 | 30 | 125 (≈ 256 µM) | 28 | 30 | 125 (≈ 256 µM) | 125 (≈ 256 µM) | 125 (≈ 256 µM) | 31 | 214 | 125 (≈ 256 µM) | 125 (≈ 256 µM) | 25 | 
10 | NS(=O)(=O)c1ccc(NS(=O)(=O)c2c(O)c3cc(Cl)ccc3oc2=O)cc1 [7a, 6-Chloro-4-hydroxy-2-oxo-N-(4-sulfamoylphenyl)-2H-chromene-3-sulfonamide] | 18.78 ± 2.05 | 245 to 247 | 26 | 28 | 250 (≈ 580 µM) | 28 | 25 | 250 (≈ 580 µM) | 250 (≈ 580 µM) | 500 (≈ 1160 µM) | 29 | 239 | 250 (≈ 580 µM) | 250 (≈ 580 µM) | 27 | 
